Measured values from EPA's ToxValDB 9.5 (doi:10.2903/j.efsa.2017.4695).

Legend:
Apis mellifera = settings: acute, mortality
Bibionidae = settings: chronic/long-term; duration: 28 days; development
Colinus virginianus = settings: acute; oral; mortality
Daphnia magna = settings: chronic/long-term; duration: 21 days; reproduction
Folsomia candida = settings: chronic/long-term; duration: 4 weeks; mortality
Lepomis macrochirus = settings: acute; duration: 96 hours; mortality
Oryctolagus sp. = settings: developmental; development
Pimephales promelas = settings: chronic/long-term; reproduction
Rattus norvegicus = settings: acute; oral; mortality
Tagia sp. = settings: chronic/long-term; duration: 8 weeks; reproduction
Aphidius rhopalosiphi = assay: LR50; higher = less toxic; settings: acute; mortality
Typhlodromus pyri = assay: LR50; higher = less toxic; settings: acute; mortality

COc1cc(OC)nc(NC(=O)NS(=O)(=O)c2c(Cl)nc3ccccn23)n1 [Imazosulfuron]
LD50 (Anas platyrhynchos; acute, oral, unspecified, mortality): > 2250 mg/kg-day
NOAEL (Anas platyrhynchos; reproductive, other): 15.9 mg/kg-day
LD50 (Apis mellifera; dermal): > 100 µg/piece
LD50 (Apis mellifera; oral, unspecified): > 41.6 µg/piece
NOEC (Bibionidae): 490 µg/L
LD50 (Colinus virginianus): > 2250 mg/kg-day
NOEC (Daphnia magna): 0.84 mg/L
NOEC (Folsomia candida): 1000 mg/kg
LC50 (Lepomis macrochirus): > 74 µg/mL
NOAEL (Oryctolagus sp.): 50 mg/kg-day
NOEC (Pimephales promelas): 2.9 mg/L
LD50 (Rattus norvegicus): > 1000 mg/kg-day
NOEC (Tagia sp.): 500 mg/kg
LR50 (Aphidius rhopalosiphi): > 50 g/ha
LR50 (Typhlodromus pyri): > 50 g/ha
